Consider 2 substances from patent US9969858B2, “Metalloinsertor conjugates” (CALIFORNIA INSTITUTE OF TECHNOLOGY, priority 2015, dated 2018).

The experiment concerns duplex DNA containing a CC mismatch. The experiment in a line: Photocleavage of mismatched DNA upon irradiation (competition titration). The settings on record: 340-440 nm irradiation. It counts as biochemical. The protocol: For [RhPt] Conjugate, a single-stranded DNA oligomer with the sequence [NT]. ID NO: 2) (underline denotes the mismatch) was labeled at the 5'-end with [^32P]-ATP and polynucleotide kinase (PNK) at 37° C. for 1 h. The radiolabeled DNA was purified by gel electrophoresis and annealed to its mismatched complement (containing a CC mismatch) by heating to 90° C. in buffer (100 mM NaCl, 20 mM NaPi, pH 7.1), followed by slow cooling to ambient temperature over 3 h, to give a final concentration of 2 μM duplex DNA. Racemic solutions of the metal complex (containing all stereoisomers) were prepared in Milli-Q water over a range of concentrations (100 nM-50 μM). For each sample, 4 μM […] (5 μl), which photocleaves DNA at mismatched sites, 2 μM annealed mismatched duplex DNA (10 μl), and the non-photocleaving competitor complex at various concentrations (5 μl) were combined to give 1 μM […] and 1 μM duplex DNA as the final concentrations. […] The amounts of DNA in each band were analyzed by autoradiography and quantitated by phosphorimagery (ImageQuant) (FIG. 20). […] To assess the binding of the rhodium subunit of RhPt at the CC mismatch, the fraction of cleaved DNA was quantified and expressed as a percentage of the total DNA in each lane and plotted against the log of the concentration of RhPt. […]

As for “[Rh(chrysi)(HDPA)(Amal)Pt(DACH]^3+ [RhPt]”, the “photocleavage of DNA upon irradiation” value is listed as “does not photocleave DNA”.

Turning to “rac-[Rh(bpy)2chrysi]Cl3 [rac-[Rh(bpy)2chrysi]3+]”, the “photocleavage of DNA upon irradiation” value was “does photocleave DNA at mismatched sites”.
